What was measured:
[1] = target: T1, MLKL N-term domain (amino acids 1-154) (Homo sapiens, UniProt Q8NB16); assay: Surface plasmon resonance (SPR) analysis, binding to MLKL N-term domain; details: MLKL N-term domain immobilized on CM5 chip, Biacore T200, 25° C., 10 mM HEPES pH 7.4
T1 construct: MLKL N-term (amino acids 1-154) protein that had been purified in a laboratory; made in house
T1 sequence (Q8NB16 1-154): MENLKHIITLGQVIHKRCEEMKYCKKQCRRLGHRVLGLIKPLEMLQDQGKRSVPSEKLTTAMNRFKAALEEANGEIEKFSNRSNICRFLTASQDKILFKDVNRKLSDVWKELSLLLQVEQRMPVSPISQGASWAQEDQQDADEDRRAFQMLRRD
Protocol: (§1) The interaction between MLKL and apomorphine (=APO) was detected through surface plasmon resonance (SPR) analysis using Biacore T200 (GE Healthcare). For pH scouting, a buffer consisting of 10 mM sodium acetate (pH 4.0 to 6.0) was used. MLKL protein (Abcam, ab241453), and MLKL N-term (amino acids 1-154) protein that had been purified in a laboratory were immobilized on the surface of a sensor chip CM5 (GE Healthcare) under scouted buffer conditions. To deduce an Rligand value, a coupling process was performed based on the molecular weights of MLKL, MLKL N-term domain (MW ligand), and APO (MW analyte). Oxidized (24 hr, RT incubation) and reduced (+DTT(DL-dithiothreitol)) forms of APO were injected into a running buffer (flow rate: 10 μl/min) consisting of 10 mM HEPES (pH 7.4) at 25° C. A sensorgram was recorded and analyzed in real time using control software provided by the Biacore T200 system itself. Six or more concentrations of APO were used in combination, and each KD value was derived. All run data was calculated using BIAevaluation Software (GE Healthcare).
(§2) SPR analysis was used to analyze the interaction pattern between APO and the MLKL protein (Experimental Method 1-10). […] Here, the analysis was performed by binding MLKL and the MLKL N-term domain protein immobilized on a CM5 chip with APO having six concentrations.

MLKL protein = target: T2, MLKL protein (Homo sapiens, UniProt Q8NB16); assay: Surface plasmon resonance (SPR) analysis, binding to MLKL protein; details: MLKL immobilized on CM5 chip, Biacore T200, 25° C., 10 mM HEPES pH 7.4
T2 construct: purchased Abcam ab241453
T2 sequence (Q8NB16 1-471): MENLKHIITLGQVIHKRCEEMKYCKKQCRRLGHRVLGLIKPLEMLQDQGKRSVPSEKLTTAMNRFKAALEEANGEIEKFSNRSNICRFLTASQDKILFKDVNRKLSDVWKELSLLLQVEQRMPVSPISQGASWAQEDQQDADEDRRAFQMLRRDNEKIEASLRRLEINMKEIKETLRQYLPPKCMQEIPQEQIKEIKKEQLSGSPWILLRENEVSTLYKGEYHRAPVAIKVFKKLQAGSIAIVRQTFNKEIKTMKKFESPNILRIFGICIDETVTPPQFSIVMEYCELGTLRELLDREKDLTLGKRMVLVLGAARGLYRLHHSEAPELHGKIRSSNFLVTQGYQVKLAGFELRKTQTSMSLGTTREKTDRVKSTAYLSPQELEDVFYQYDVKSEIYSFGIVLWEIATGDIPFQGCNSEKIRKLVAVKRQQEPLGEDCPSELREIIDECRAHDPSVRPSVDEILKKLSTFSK
Protocol: as §1, §2

[2] = test system: MLKL translocation in transfected THP-1 cells; assay: Flag-MLKL translocation to cell membrane, immunofluorescent staining, confocal microscopy; format: cell-based, human; details: transfected THP-1 cells stimulated with compound and TBZ, FIG. 3
Protocol: A human monocyte cell line THP-1 and a human colon cancer cell line HT-29 were maintained in a 10% FBS-Roswell Park Memorial Institute (RPMI) 1640 medium supplemented with 2 mM L-glutamine, 100 U/ml penicillin, and 100 μg/ml streptomycin at 37° C. under a 5% CO2 condition. The THP-1 cells were differentiated into macrophages in an RPMI 1640 medium containing 500 nM Phorbol 12-myristate 13-acetate (PMA) for 3 hours. Human mixed lineage kinase domain-like protein (MLKL)-flag plasmid (Sino Biological, HG12810-CF) transfection was performed using the electroporation system (Invitrogen) of MicroPorator-mini (Digital Bio).
Cells were seeded on cell culture-treated glass chamber slides. The cells were pretreated with Z-VAD, BV6, and the indicated compound for 1 hour, and then treated with TNF-α and BV6 overnight. Subsequently, the cells were washed with phosphate-buffered saline (PBS) and fixed in 4% paraformaldehyde for 10 minutes. Before incubation for 10 minutes in 0.25% Triton X-100 in PBS, the cells were washed three more times with PBS. The cells were blocked with 5% bovine serum albumin (BSA) in PBS for 30 minutes and stained using an anti-Flag (Sigma, F7425-2MG) antibody. The nuclei were stained with DAPI (Invitrogen, 00-4959-52). Images were captured using a confocal microscope (Olympus, FV1000). […]

Kd [1]: 62.5 nM | Kd (MLKL protein): 12.7 nM
Compound: CN1CCc2cccc3c2[C@H]1Cc1ccc(O)c(O)c1-3 [APO, apomorphine]
distribution of Flag-MLKL signals [2]: mostly distributed in the cytoplasm
